In PMC7601839, “Anti-Acne Effects of Cembrene Diterpenoids from the Cultured Soft Coral Sinularia flexibilis” (Marine Drugs, 2020):

How the values were obtained:
[1] = system: iNOS; set-up: method as in PMID 23774887; conditions: LPS-stimulated RAW264.7 macrophage cells; cited from earlier work
[2] = system: COX-2; set-up: method as in PMID 23774887; conditions: LPS-stimulated RAW264.7 macrophage cells; cited from earlier work
[3] = system: HaCaT cells; conditions: 20 nM, 48 h
Protocol: (§5) HaCaT cells (10^5 cells/mL) were seeded in 96-well plates and co-treated with testosterone (5 μg/mL) or DHT (5 μg/mL) and test samples with no cytotoxicity for 48 h [2, 25, 26]. Cell proliferative activity was detected by an MTT assay.

[4] = system: HaCaT cells; assay: cells; conditions: Homo sapiens, read-out: HaCaT cell viability
Protocol: as §5

[5] = system: LPS-induced RAW 264.7 cells (NO production); assay: NO production (Griess) in LPS-induced RAW 264.7 cells; assay type: cell-based; conditions: for inhibition at 20 µM / IC50: Mus musculus, RAW264.7, 24 h; for IC50: read-out: IC50 Value of NO Inhibition
Protocol: (§1) Anti-inflammatory effects were analyzed in RAW 264.7 cells, which were cultured in DMEM with 10% FBS, 1% L-glutamine, and 1% penicillin-streptomycin, and maintained at 37 °C in a 5% CO2 atmosphere. RAW 264.7 cells (4.0 × 10^5 cells/mL) were seeded in 96-well plates and co-treated with LPS (500 ng/mL) and test samples. After 24 h, NO production was determined by Griess reagent, and the absorption was detected at 530 nm. The percentage inhibition of NO production was presented as the anti-inflammatory activity. PGE2 concentrations in cell culture media were determined with a PGE2 enzyme-linked immunosorbent assay (ELISA) kit (Enzo Life Sciences, Farmingdale, NY, USA). The survival rate of RAW 264.7 cells was detected using an MTT assay.

[6] = Survival rate of RAW 264.7 cells by MTT assay; assay type: cell-based; conditions: mouse, LPS-induced RAW 264.7 cells, read-out: Cell Viability (%)
Protocol: as §1

[7] = system: LPS-induced RAW 264.7 cells (PGE2 production); assay: PGE2 production (ELISA) in LPS-induced RAW 264.7 cells; assay type: cell-based; conditions: 24 h
Protocol: as §1

[8] = system: HKC-induced RAW 264.7 cells (NO production); assay: NO production (Griess) in heat-killed C. acnes (HKC)-induced RAW 264.7 cells; assay type: cell-based; conditions: Mus musculus, RAW264.7, 24 h, read-out: IC50 Value of NO Inhibition
Protocol: (§2) C. acnes (4 × 10^8 cfu/mL) was heated at 80 °C for 30 min and killed. Heat-killed C. acnes (HKC) was freeze-dried as a powder and maintained at 4 °C until use. RAW 264.7 and HaCaT cells were cultured in DMEM with 10% FBS, 1% penicillin-streptomycin, and 1% L-glutamine at 37 °C in a 5% CO2 atmosphere. RAW 264.7 cells (4 × 10^5 cells/mL) and HaCaT cells (10^5 cells/mL) were seeded in six-well plates and co-treated with HKC (300 μg/mL) and test samples [24]. After 24 h, NO production was determined by adding the Griess reagent in the cell culture medium, and the absorption was measured in an ELISA reader at 530 nm. The sample culture medium was removed, and RAW 264.7 cells and HaCaT cells were washed with PBS.

[9] = system: p-ERK; assay: Western blot of p-ERK in LPS-induced RAW 264.7 cells; assay type: cell-based; conditions: 30 min, SC-2 2.5–20 μM, SC-7 5–40 μM, SC-9 2.5–20 μM
Protocol: (§3) Whole-cell lysates were prepared using radioimmunoprecipitation (RIPA) assay. Proteins in lysate samples (30 μg) were analyzed using 10% sodium dodecylsulfate-polyacrylamide gel electrophoresis (SDS-PAGE). Gels were transferred to nitrocellulose membranes and probed with primary iNOS (clone N-20), COX-2 (clone C-20), p-ERK (clone N-20), p-JNK (clone N-20), and glyceraldehyde-3-phosphate dehydrogenase (GAPDH; clone 6C5) antibodies (Santa Cruz Biotechnology, Santa Cruz, CA, USA). Membranes were visualized with a BCIP/NBT kit (Gibco BRL, Grand Island, NY, USA). Protein expression was quantified using the Azure Biosystem C300 Imaging System. GAPDH expression was used as an internal control to compare with protein expressions of iNOS, COX-2, p-ERK, and p-JNK [24].

[10] = system: p-JNK; assay: Western blot of p-JNK in LPS-induced RAW 264.7 cells; assay type: cell-based; conditions: 30 min, SC-2 2.5–20 μM, SC-7 5–40 μM, SC-9 2.5–20 μM
Protocol: as §3

[11] = system: COX-2; assay: Western blot of COX-2 in LPS-induced RAW 264.7 cells; assay type: cell-based; conditions: 6 h and 24 h
Protocol: as §3

[12] = system: iNOS; assay: Western blot of iNOS in LPS-induced RAW 264.7 cells; assay type: cell-based; conditions: 24 h
Protocol: as §3

[13] = system: p-ERK; assay: Western blot of p-ERK in HKC-treated RAW 264.7 cells; assay type: cell-based; conditions: SC-2 2.5–20 μM, SC-7 5–40 μM, SC-9 2.5–20 μM
Protocol: as §3, §2

[14] = system: p-JNK; assay: Western blot of p-JNK in HKC-treated RAW 264.7 cells; assay type: cell-based; conditions: SC-2 2.5–20 μM, SC-7 5–40 μM, SC-9 2.5–20 μM
Protocol: as §3, §2

[15] = system: iNOS; assay: Western blot of iNOS in HKC-treated RAW 264.7 cells; assay type: cell-based
Protocol: as §3, §2

[16] = system: COX-2; assay: Western blot of COX-2 in HKC-treated RAW 264.7 cells; assay type: cell-based
Protocol: as §3, §2

[17] = system: HaCaT cells; assay: Cytotoxicity analysis in HaCaT cells; assay type: cell-based, human
[18] = system: p-ERK; assay: Western blot of p-ERK in HKC-treated HaCaT cells; assay type: cell-based, human; conditions: 30 min after HKC induction
Protocol: as §3, §2

[19] = system: Testosterone-induced HaCaT cells; assay: Anti-proliferative activity in testosterone-treated HaCaT cells (MTT); assay type: cell-based, human; conditions: for testosterone-induced HaCaT cell proliferation: SC-2 1.25–5, SC-7 2.5–10, SC-9 0.08–0.32 μM, 48 h
Protocol: (§4) HaCaT cells (10^5 cells/mL) were seeded in 96-well plates and co-treated with testosterone (5 μg/mL) or DHT (5 μg/mL) and test samples with no cytotoxicity for 48 h. Cell proliferative activity was detected by an MTT assay.

[20] = system: Dihydrotestosterone-induced HaCaT cells; assay: Anti-proliferative activity in dihydrotestosterone-treated HaCaT cells (MTT); assay type: cell-based, human; conditions: for keratinocyte over-proliferation by DHT: HaCaT keratinocytes
Protocol: as §4

[21] = Homo sapiens, testosterone-induced HaCaT cells
[22] = Homo sapiens, dihydrotestosterone-induced HaCaT cells

SMILES	accumulation of the proinflammatory iNOS protein [1]	accumulation of COX-2 protein [2]	inhibition at 20 µM [5]	IC50 [5]	viability at 24 h, 20 µM [6]	inhibitory effect on prostaglandin E2 (PGE2) production [7]	IC50 [8]	p-ERK protein expression [9]	p-JNK protein expression [10]	COX-2 protein expression [11]	iNOS protein expression [12]	p-ERK expression [13]	p-JNK expression [14]	iNOS expression [15]	COX-2 expression [16]	concentrations with no cytotoxicity to HaCaT cells [17]	p-ERK protein expression [18]	inhibition at 2.5 µM [19, 21]	inhibition at 5 µM [19, 21]	testosterone-induced HaCaT cell proliferation [19]	other results
C=C1C(=O)O[C@]2(C)CC[C@@H]1C[C@@H]1O[C@@]1(C)CC/C=C(\C)CC[C@H]2O [11-epi-sinulariolide]	significantly inhibit	could reduce																			
C[C@]12CCC(=O)C[C@@H]1CC[C@@H]1[C@@H]2CC[C@]2(C)[C@@H](O)CC[C@@H]12 [DHT, dihydrotestosterone]																					HaCaT cell proliferation [3]: significantly induced; viability at 0.1 µg/mL [4]: 97.6%; viability at 0.5 µg/mL [4]: 103%; viability at 1 µg/mL [4]: 105%; viability at 5 µg/mL [4]: 118%
C=C1C(=O)OC2(C)CCC1CC1OC1(C)CCC=C(C)CCC2=O (stereo not drawn) [SC-2, 11-dehydrosinulariolide]	significantly inhibit	could reduce	92.4 ± 3%	5.66 ± 0.19 µM	102 ± 9.4%	no inhibitory effect	5.81 ± 0.4 µM	dose-dependent inhibitory effects	dose-dependent inhibitory effects	did not present identical COX-2 inhibitory effects	decreased iNOS protein expression	good inhibitory effects	good inhibitory effects	significant inhibitory effects	no changes	1.25 to 10 µM	significant inhibitory effects	13.5 ± 1.1%	17.4 ± 2.8%	significantly decreased	growth inhibition of HaCaT cells ([17]; at high doses): caused growth inhibition; inhibition at 1.25 µM ([19]; Homo sapiens, testosterone-induced HaCaT cells, 1.25 μM): 11.9 ± 5.5%; keratinocyte over-proliferation by DHT [20]: inhibited keratinocyte over-proliferation; inhibition at 1.25 µM ([20]; Homo sapiens, dihydrotestosterone-induced HaCaT cells, 1.25 μM): 10.6 ± 3%; inhibition at 2.5 µM [20, 22]: 12.3 ± 3.1%; inhibition at 5 µM [20, 22]: 16.8 ± 4%
C=C(C(=O)O)[C@@H]1CC[C@@](C)(O)[C@@H]2CC[C@@](C)(O2)[C@@H](OC(C)=O)CC[C@]2(C)O[C@H]2C1 [SC-6, dendronpholide F]			-15.1%		96.1 ± 0.4%																inhibitory effects on NO expression [5]: no inhibitory effects
C=C1C(=O)OC2(C)CCC1CC1OC1(C)CCC(OC(C)=O)C1(C)CCC2O1 (stereo not drawn) [SC-7, 3,4:8,11-bisepoxy-7-acetoxycembra-15(17)-en-1,12-olide]	significantly inhibit		50.2 ± 5.5%	15.2 ± 0.25 µM	96.1 ± 8.4%	no inhibitory effect	7.42 ± 0.4 µM	dose-dependent inhibitory effects	dose-dependent inhibitory effects	did not present identical COX-2 inhibitory effects	decreased iNOS protein expression	good inhibitory effects	good inhibitory effects	significant inhibitory effects	no changes	5 to 40 µM	significant inhibitory effects	13.2 ± 0.7%	14 ± 2%	significantly decreased	inhibition at 10 µM ([19]; Homo sapiens, testosterone-induced HaCaT cells, 10 μM): 20.8 ± 0.9%; keratinocyte over-proliferation by DHT [20]: inhibited keratinocyte over-proliferation; inhibition at 2.5 µM [20, 22]: 9.5 ± 3.2%; inhibition at 5 µM [20, 22]: 13.1 ± 2.9%; inhibition at 10 µM ([20]; Homo sapiens, dihydrotestosterone-induced HaCaT cells, 10 μM): 13.8 ± 0.8%
